Measured values as given in patent US6521647B2, “Treatment of renal disorders” (Pfizer Inc., priority 2000, dated 2003).

Assays:
[1] = system: normotensive nephrectomised cats with chronic renal failure; experiment: GFR in normotensive nephrectomised cats with chronic renal failure (Example 1); assay type: in vivo, cat; conditions: amlodipine besylate once daily at 0.125 mg/kg; after 35 days; no change in placebo group
Experimental: In this experiment, comparative groups of normotensive nephrectomised cats with chronic renal failure had their GFR measured. […] After 35 days the GFR was measured again. There was no change in the placebo group, but the GFR had increased by an average of ca. 28% for the amlodipine-treated group.

[2] = system: cats with chronic renal failure; experiment: GFR from plasma clearance of iohexol in client-owned normotensive cats with spontaneous chronic renal failure (Experiment 2); assay type: in vivo, cat
Text: The data in the Table below were collected from client-owned, pet cats that had been diagnosed with spontaneous chronic renal failure (chronic renal insufficiency). These cats were presented by owners/clients to veterinary practices for evaluation of general health, kidney function, and systolic blood pressure.
Chronic renal failure is generally considered an irreversible and progressive disease in cats. […] Cats were considered normotensive as defined by systolic arterial blood pressure less than 160 mm Hg prior to the onset of treatment.
Renal function was assessed by determining glomerular filtration rate (GFR). GFR was estimated from plasma clearance of the exogenous marker, iohexol, approximately 7 days prior to the onset of treatment (day—7) and on approximately days 28, 56, 112, and 224 following onset of treatment.

CCOC(=O)C1=C(COCCN)NC(C)=C(C(=O)OC)C1c1ccccc1Cl (stereo not drawn) [Amlodipine, amlodipine besylate]
increase in GFR (average) [1]: ca. 28% | GFR increase on average between day −7 and day 224 ([2]; 0.125 to 0.25 mg/kg once daily oral, placebo declined 17%): 9% | effect on decline in renal function (in words) ([2]; 0.125 to 0.25 mg/kg/day orally): prevents the decline in function associated with the progression of chronic renal failure in cats
